Results: PubChem BioAssay AID1963849 (Molecular Pharmacology Branch, DTP, NCI, 2024)
pIC50: −log10 of the molar value.

System: 299254-011-R-J1-PDC complex spheroid viability
Assay: Anticancer human tumor 299254-011-R-J1-PDC patient-derived melanoma cell line growth inhibition [POLQ]
Settings: for pIC50: curve of first compound; for viability, T/C: stronger effect = lower value; active means viability on the fitted dose curve at most 10% of control; inactive means the rest
Experimental: Multicellular complex tumor spheroid response to Polymerase (POL) inhibitors (novobiocin, ART-558, RP6685) in combination with a variety of drugs and investigational agents in selected tumor cell lines
The POL inhibitors (novobiocin, ART-558, and RP6685) were evaluated both individually and in combination with standard of care and investigational anticancer small molecules within a complex spheroid model of solid tumors. . Complex spheroids include a stromal component modeled by human endothelial cells (HUVEC) and fibroblasts modeled by human mesenchymal stem cells (MSCs). The concentration ranges selected for each drug and investigational agent were based upon clinically achievable concentrations if the clinical Cmax of the agent was known.
Compounds. The drugs and investigational agents: novobiocin (NSC847541), ART-558 (NSC835418), RP-6685 (NSC848927), peposertib (NSC802822), ceralasertib (NSC780249), elimusertib (NSC800525), camonsertib (NSC841442), AZD-1390 (NSC803789), olaparib (NSC753686), talazoparib (NSC767125), rucaparib (NSC756644), sotorasib (NSC818433), MRTX-1133 (NSC836407), SN-38 (NSC673596), topotecan (NSC609699), epotoside (NSC141540), doxorubicin (NSC123127), gemcitabine (NSC613327), 5-fluorouracil (NSC19893), paclitaxel (NSC125973), vemurafenib (NSC761431), MSA-2 (NSC828583), SN-011 (NSC837082), adavosertib (NSC754352), prexasertib (NSC758257), carboplatin (NSC241240) and oxaliplatin (NSC266046), were obtained from the National Cancer Institute (NCI) Developmental Therapeutics Program Chemical Repository (21). The FDA-approved anticancer drug set is available from the Developmental Therapeutics Program at https://dtp.cancer.gov/organization/dscb/obtaining/. […] The stock solutions were prepared in dimethyl sulfoxide (DMSO, Sigma-Aldrich, St. Louis, MO, cat. D2650), except for the platinum compounds which were prepared in saline (Quality Biological, Gaithersburg, MD, cat. 114-055-101), at 800-fold the tested concentration and stored at -70 degrees C prior to their use. All drugs and investigational agents were tested over a range starting from a high concentration at or near the clinical Cmax and decreasing in half-log increments. If the clinical Cmax for an agent had not been determined, the highest concentration tested was 10 microM, except for SN-38, which was tested at a high concentration of 1 microM.
Cell Culture. All cells were maintained in an incubator at 37 degrees C and 5% CO2 with 95% humidity. The PDC lines were cultured according to standard operating procedures established by the NCI PDMR (https://pdmr.cancer.gov). Table 3 of the manuscript, lists the cell lines along with the number of the three cell types plated to form the mct-spheroids and media for tumor cell growth. After thawing, all PDC lines, except 997537-175-T-J1-PDC and 415267-285-R-J2-PDC, were cultured in Matrigel-coated flasks prepared with a working solution of 1X Ham's F-12 nutrient mix, without supplementation (Thermo Fisher Scientific, cat. 11765054), 100 U/mL penicillin-streptomycin (Thermo Fisher Scientific, cat. 15140122), and 2.5% Matrigel (Corning Inc., Corning, NY, cat. 354248) for the first three passages. The two PDC lines 997537-175-T-J1-PDC and 415267-285-R-J2-PDC were cultured on uncoated flasks. The 857933-349-R-J2-PDC line was cultured in 6C/Colon 1B media containing advanced DMEM/F-12 (Thermo Fisher Scientific, cat. 12634028), 10 mM HEPES (Thermo Fisher Scientific, cat. 15630080), 1X GlutaMAX supplement (Thermo Fisher Scientific, cat. 35050061), 0.1 mg/mL primocin (InvivoGen, San Diego, CA, cat. ant-pm-2), 10% defined fetal bovine serum, heat inactivated (HyClone Laboratories Inc., Logan, UT, cat. SH30070.03HI), 50% L-WRN conditioned media (ATCC, cat. CRL-3276), 1.25 mM N-Acetyl-L-cysteine (Sigma-Aldrich, cat. A9165), 10 mM nicotinamide (Sigma-Aldrich, cat. N0636), 1X B-27 supplement (Thermo Fisher Scientific, cat. 17504044), 1X N-2 supplement (Thermo Fisher Scientific, cat. […]

[1] = second compound 0.0316 µM, first compound 0.0316 µM
[2] = second compound 0.0316 µM, first compound 0.1 µM
[3] = second compound 0.0316 µM, first compound 0.316 µM
[4] = second compound 0.0316 µM, first compound 1 µM
[5] = second compound 0.0316 µM, first compound 3.16 µM
[6] = second compound 0.0316 µM, first compound 10 µM
[7] = second compound 0.1 µM, first compound 0.0316 µM
[8] = second compound 0.1 µM, first compound 0.1 µM
[9] = second compound 0.1 µM, first compound 0.316 µM
[10] = second compound 0.1 µM, first compound 1 µM
[11] = second compound 0.1 µM, first compound 3.16 µM
[12] = second compound 0.1 µM, first compound 10 µM
[13] = second compound 0.316 µM, first compound 0.0316 µM
[14] = second compound 0.316 µM, first compound 0.1 µM
[15] = second compound 0.316 µM, first compound 0.316 µM
[16] = second compound 0.316 µM, first compound 1 µM
[17] = second compound 0.316 µM, first compound 3.16 µM
[18] = second compound 0.316 µM, first compound 10 µM
[19] = second compound 1 µM, first compound 0.0316 µM
[20] = second compound 1 µM, first compound 0.1 µM
[21] = second compound 1 µM, first compound 0.316 µM
[22] = second compound 1 µM, first compound 1 µM
[23] = second compound 1 µM, first compound 3.16 µM
[24] = second compound 1 µM, first compound 10 µM
[25] = second compound 3.16 µM, first compound 0.0316 µM
[26] = second compound 3.16 µM, first compound 0.1 µM
[27] = second compound 3.16 µM, first compound 0.316 µM
[28] = second compound 3.16 µM, first compound 1 µM
[29] = second compound 3.16 µM, first compound 3.16 µM
[30] = second compound 3.16 µM, first compound 10 µM
[31] = second compound 10 µM, first compound 0.0316 µM
[32] = second compound 10 µM, first compound 0.1 µM
[33] = second compound 10 µM, first compound 0.316 µM
[34] = second compound 10 µM, first compound 1 µM
[35] = second compound 10 µM, first compound 3.16 µM
[36] = second compound 10 µM, first compound 10 µM
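Further: spheroids exposed to drugs for one week before measurement.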
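Wherever viability, T/C is given: percent viability relative to DMSO vehicle control taken as 100%.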

C#Cc1c(F)ccc2cc(O)cc(-c3ncc4c(N5CC6CCC(C5)N6)nc(OCC56CCCN5CC(F)C6)nc4c3F)c12 (centres undefined) + Nc1ccc(C#CCN(C(=O)Cc2ncc(C(F)(F)F)cc2C(F)(F)F)c2ccc(F)cc2)nn1
< 5.00: pIC50 (second compound 0.0316 µM) | pIC50 (second compound 0.1 µM) | pIC50 (second compound 0.316 µM) | pIC50 (second compound 1 µM) | pIC50 (second compound 3.16 µM) | pIC50 (second compound 10 µM)
inactive: viability, T/C [1] 106% | viability, T/C [2] 108% | viability, T/C [3] 106% | viability, T/C [4] 112% | viability, T/C [5] 116% | viability, T/C [6] 82.1% | viability, T/C [7] 92.3% | viability, T/C [8] 109% | viability, T/C [9] 110% | viability, T/C [10] 104% | viability, T/C [11] 103% | viability, T/C [12] 90.2% | viability, T/C [13] 107% | viability, T/C [14] 103% | viability, T/C [15] 133% | viability, T/C [16] 104% | viability, T/C [17] 98% | viability, T/C [18] 92.4% | viability, T/C [19] 114% | viability, T/C [20] 102% | viability, T/C [21] 104% | viability, T/C [22] 136% | viability, T/C [23] 103% | viability, T/C [24] 103% | viability, T/C [25] 117% | viability, T/C [26] 118% | viability, T/C [27] 106% | viability, T/C [28] 128% | viability, T/C [29] 99.1% | viability, T/C [30] 86.6% | viability, T/C [31] 103% | viability, T/C [32] 89.5% | viability, T/C [33] 92.6% | viability, T/C [34] 128% | viability, T/C [35] 96.9% | viability, T/C [36] 68.6%

CNCc1ccc(-c2[nH]c3cc(F)cc4c3c2CCNC4=O)cc1 + Nc1ccc(C#CCN(C(=O)Cc2ncc(C(F)(F)F)cc2C(F)(F)F)c2ccc(F)cc2)nn1
< 5.00: pIC50 (second compound 0.0316 µM) | pIC50 (second compound 0.1 µM) | pIC50 (second compound 0.316 µM) | pIC50 (second compound 1 µM) | pIC50 (second compound 3.16 µM) | pIC50 (second compound 10 µM)
inactive: viability, T/C [1] 108% | viability, T/C [2] 107% | viability, T/C [3] 109% | viability, T/C [4] 122% | viability, T/C [5] 110% | viability, T/C [6] 103% | viability, T/C [7] 115% | viability, T/C [8] 117% | viability, T/C [9] 99.8% | viability, T/C [10] 105% | viability, T/C [11] 109% | viability, T/C [12] 109% | viability, T/C [13] 106% | viability, T/C [14] 107% | viability, T/C [15] 96.4% | viability, T/C [16] 95.7% | viability, T/C [17] 119% | viability, T/C [18] 129% | viability, T/C [19] 113% | viability, T/C [20] 111% | viability, T/C [21] 94.4% | viability, T/C [22] 102% | viability, T/C [23] 129% | viability, T/C [24] 114% | viability, T/C [25] 106% | viability, T/C [26] 105% | viability, T/C [27] 110% | viability, T/C [28] 95.9% | viability, T/C [29] 124% | viability, T/C [30] 124% | viability, T/C [31] 107% | viability, T/C [32] 96.2% | viability, T/C [33] 93.1% | viability, T/C [34] 103% | viability, T/C [35] 102% | viability, T/C [36] 94.1%
